One test addresses T1, photosystem II (PS II) (Spinacia oleracea, UniProt P69560).
T1 construct: the chloroplasts were osmotically ruptured and the thylakoid membranes were then obtained by centrifugation; from tissue; host or cells: fresh spinach leaves; thylakoid membranes isolated from chloroplasts
Put plainly: Measurement of the PS II activity in thylakoid membranes (DCPIP reduction). The test is classed as biochemical. The following applies: 100 μM test compound, spinach thylakoid membranes, DCPIP 120 μM, 10 min at 22° C. with exposure to light; read-out: Effect (inhibition of PS II activity). As for the experimental part: Cooled fresh spinach leaves were comminuted and homogenized in 50 mM phosphate buffer, pH 6.8. 10 mM KCl, 0.34 M sucrose (sucrose buffer) (blender, 1 g of plant material/ml). The homogenate was subsequently filtered through 4 layers of Miracloth and the chloroplasts were isolated by centrifugation, i.e. 10 min of centrifugation at 4400×g (4° C.). The sediment was suspended in 25 ml of sucrose buffer and re-centrifuged for 10 min at 4400×g (4° C.). The sediment was then suspended in 40 ml of 50 mM phosphate buffer, pH 6.8, 10 mM KCl, without sucrose. In this step, the chloroplasts were osmotically ruptured and the thylakoid membranes were then obtained by centrifugation (10 min, 4400×g, 4° C.). The membrane sediment was finally suspended in 20 ml of 50 mM phosphate buffer, pH 6.8, 10 mM KCl. Following protein determination and activity determination, the membrane suspension was divided into aliquots and frozen in liquid nitrogen. The aliquots were stored at −80° C. Under these conditions, the photosystem II preparation was storage stable for at least three months. The activity determination of photosystem II (PS II) was then carried out using the following test principle:
The electron transfer from PS II to an artificial electron acceptor, 2,6-dichlorophenolindophenol (DCPIP), was measured with exposure to light. The concentration of the blue oxidized form of DCPIP was determined spectrophotometrically at wavelength λ=595 nm. […] The activity determination was carried out in microtiter plates (96 cavities) in a reaction volume of 200 μl. Here, 155 μl of dilute membrane suspension were initially charged in 50 mM of phosphate buffer, pH 6.8, 10 mM KCl. Depending on the activity of the PS II preparation, the dilution was adjusted such that the measurement of the decrease in absorption (λ=595 nm) was linear for at least 10 min. In each case 5 μl solution of the test compounds of a concentration of 100 μM in DMSO were added to the enzyme suspension; controls contained 5 μl DMSO; the final concentration of DMSO in the reaction batch was thus 2.5% (v/v); this concentration had no adverse effect on the enzymatic activity. On each microtiter plate, a known PS II inhibitor, for example metribuzin, was used as standard, which allowed the quality of the PS II test to be assessed. The reaction was started by addition of 40 μl DCPIP solution (600 μM in distilled water); the final concentration of DCPIP was 120 μM. Measurement of absorption was carried out over a period of 10 min at 22° C. and with exposure to light. Using metribuzin as comparative substance, the results for the efficacy of the compounds of the general formula (I) at 100 μM are stated in the table below using the following classification: ++++ (inhibition≥90%), +++ ([…]≥70%), ++ (70%>inhibition≥50%), + (50%>inhibition≥30%).

For test [1], the system named is Abutilon theophrasti. The test can be described thus: Post-emergence herbicidal action. The test is classed as in vivo. To be noted: Abutilon theophrasti, 504 h, 1280 g/ha, about 3 weeks after treatment, read-out: Abutilon theophrasti, herbicidal activity rated visually. As for the experimental part: (§1) Seeds of monocotyledonous and dicotyledonous weeds and crop plants were placed in sandy loam in plastic or wood-fiber pots, covered with soil and cultivated in a greenhouse under controlled growth conditions. 2 to 3 weeks after sowing, the test plants were treated at the one-leaf stage. The compounds of the invention, formulated in the form of wettable powders (WP) or as emulsion concentrates (EC), were then sprayed onto the green parts of the plants as aqueous suspension or emulsion with addition of 0.5% additive at a water application rate of 600 l/ha (converted). After the test plants had been kept in the greenhouse under optimum growth conditions for about 3 weeks, the activity of the preparations was rated visually in comparison to untreated controls. For example, 100% activity=the plants have died, 0% activity=like control plants. Tables A1 to A12 below show the effects of selected compounds of the general formula (I) according to Tables I.1 to I.44 on various harmful plants and an application rate corresponding to 1280 g/ha or 320 g/ha, which were obtained by the experimental procedure mentioned above.

Test [2] deals with Stellaria media. Put plainly: Post-emergence herbicidal action. The test is classed as in vivo. To be noted: Stellaria media, 504 h, 1280 g/ha, about 3 weeks after treatment, read-out: Stellaria media, herbicidal activity rated visually. Here is the method: as §1
For test [3], the system named is Setaria viridis. Put plainly: Post-emergence herbicidal action. The test is classed as in vivo. To be noted: Setaria viridis, 504 h, 1280 g/ha, about 3 weeks after treatment, read-out: Setaria viridis, herbicidal activity rated visually. As for the experimental part: as §1
The subject of test [4] is Viola tricolor. Put plainly: Post-emergence herbicidal action. The test is classed as in vivo. To be noted: 504 h, 1280 g/ha, about 3 weeks after treatment, read-out: Viola tricolor, herbicidal activity rated visually. Here is the method: as §1
The next test concerns Pharbitis purpurea. The test can be described thus: Post-emergence herbicidal action. The test is classed as in vivo. The following applies: 1280 g/ha, about 3 weeks after treatment. As for the experimental part: as §1
Another test relates to Hordeum murinum. The test can be described thus: Post-emergence herbicidal action. The class given is in vivo. To be noted: 1280 g/ha, about 3 weeks after treatment. As for the experimental part:
as §1

Test [5] deals with Abutilon theophrasti. The test can be described thus: Pre-emergence herbicidal action. The following applies: 1280 g/ha, after about 3 weeks. The test is classed as in vivo. The text has this:
(§2) Seeds of monocotyledonous and dicotyledonous weed plants and crop plants were placed in plastic or organic planting pots and covered with soil. The compounds of the invention, formulated in the form of wettable powders (WP) or as emulsion concentrates (EC), were then applied onto the surface of the covering soil as aqueous suspension or emulsion with addition of 0.5% additive at a water application rate of 600 l/ha (converted). After the treatment, the pots were placed in a greenhouse and kept under good growth conditions for the test plants. After about 3 weeks, the effect of the preparations was scored visually in comparison with untreated controls as percentages. For example, 100% activity=the plants have died, 0% activity=like control plants. Tables B1 to B15 below show the effects of selected compounds of the general formula (I) according to Tables I.1 to I.44 on various harmful plants and an application rate corresponding to 1280 g/ha or 320 g/ha, which were obtained by the experimental procedure mentioned above.

In test [6] the test system is Stellaria media. Put plainly: Pre-emergence herbicidal action. The test is classed as in vivo. The following applies: Stellaria media, 504 h, 1280 g/ha, after about 3 weeks, read-out: Stellaria media, herbicidal effect scored visually.
Excerpt: as §2

Test [7] deals with Matricaria inodora. Put plainly: Pre-emergence herbicidal action. The test is classed as in vivo. The following applies: Tripleurospermum inodorum, 504 h, after about 3 weeks, read-out: Matricaria inodora, herbicidal effect scored visually.
Excerpt: as §2

Test [8] relates to Setaria viridis. The test can be described thus: Pre-emergence herbicidal action. The test is classed as in vivo. The following applies: Setaria viridis, 504 h, 1280 g/ha, after about 3 weeks, read-out: Setaria viridis, herbicidal effect scored visually.
Excerpt: as §2

Test [9] deals with Alopecurus myosuroides. The test can be described thus: Pre-emergence herbicidal action. The following applies: 1280 g/ha, after about 3 weeks. The class given is in vivo.
Excerpt: as §2

For test [10], the system named is Viola tricolor. Put plainly: Pre-emergence herbicidal action. The class given is in vivo. To be noted: Viola tricolor, 504 h, 1280 g/ha, after about 3 weeks, read-out: Viola tricolor, herbicidal effect scored visually.
Excerpt: as §2

Test [11] relates to Polygonum convolvulus. Put plainly: Pre-emergence herbicidal action. The test is classed as in vivo. To be noted: 1280 g/ha, after about 3 weeks.
Excerpt: as §2

Test [12] relates to Amaranthus retroflexus. The test can be described thus: Post-emergence herbicidal action. The class given is in vivo. The following applies: 1280 g/ha, about 3 weeks after treatment. As for the experimental part:
as §1

The test system of test [13] is Veronica persica. The test can be described thus: Post-emergence herbicidal action. The class given is in vivo. To be noted: 320 g/ha, about 3 weeks after treatment. Here is the method:
as §1

Test [14] relates to Alopecurus myosuroides. The test can be described thus: Post-emergence herbicidal action. The test is classed as in vivo. To be noted: 1280 g/ha, about 3 weeks after treatment. Here is the method:
as §1

Test [15] has as its system Polygonum convolvulus. The test can be described thus: Post-emergence herbicidal action. To be noted: 1280 g/ha, about 3 weeks after treatment. The class given is in vivo. Here is the method: as §1
The subject of test [16] is Amaranthus retroflexus. Put plainly: Pre-emergence herbicidal action. The class given is in vivo. The following applies: after about 3 weeks.
Excerpt: as §2

Test [17] deals with Veronica persica. Put plainly: Pre-emergence herbicidal action. The following applies: 1280 g/ha, after about 3 weeks. The test is classed as in vivo.
Excerpt: as §2

For test [18], the system named is Echinochloa crus-galli. The test can be described thus: Post-emergence herbicidal action. The test is classed as in vivo. To be noted: 1280 g/ha, about 3 weeks after treatment. As for the experimental part: as §1
Test [19] relates to Matricaria inodora. Put plainly: Post-emergence herbicidal action. The class given is in vivo. The following applies: 1280 g/ha, about 3 weeks after treatment. Here is the method:
as §1

The test system of another test is Lolium rigidum. Put plainly: Pre-emergence herbicidal action. The test is classed as in vivo. To be noted: 1280 g/ha, after about 3 weeks.
Excerpt: as §2

The next test concerns Poa annua. The test can be described thus: Pre-emergence herbicidal action. The test is classed as in vivo. The following applies: 1280 g/ha, after about 3 weeks.
Excerpt: as §2

The subject of test [20] is Echinochloa crus-galli. The test can be described thus: Pre-emergence herbicidal action. The class given is in vivo. The following applies: 1280 g/ha, after about 3 weeks.
Excerpt: as §2

With `CCCc1nsc(N2C(=O)C(C)=C(C)C2O)n1` (centres unmarked) [I.2-4, 3,4-Dimethyl-5-hydroxy-1-[3-(n-propyl)-1,2,4-thiadiazol-5-yl)-1,5-dihydro-2H-pyrrol-2-one], the inhibition – broadly, the percentage by which the read-out fell short of the control – at 100 µM (stock) on photosystem II (PS II) is above 90%. Further, the pest or weed control at 1280 g/ha with Abutilon theophrasti [1] was 90%; in the test with Stellaria media [2] it was 80%; with Setaria viridis [3], 100%; in the test on Viola tricolor [4], 80%; in the test on Stellaria media [6] it was 100%; with Matricaria inodora [7] it was 100%. In addition, the pest or weed control at 1280 g/ha with Setaria viridis [8] and with Viola tricolor [10] was 100% throughout. In the test with Pharbitis purpurea, the “Pharbitis purpurea, herbicidal activity rated visually” value was 90%. Besides, the “Hordeum murinum, herbicidal activity rated visually” value in the test on Hordeum murinum is given as 80%. In addition, the “Abutilon theophrasti, herbicidal effect scored visually” value with Abutilon theophrasti [5] is on record as 80%. Besides, the “Alopecurus myosuroides, herbicidal effect scored visually” value with Alopecurus myosuroides [9] is given as 90%. Besides, in the test with Polygonum convolvulus [11], the “Polygonum convolvulus, herbicidal effect scored visually” value turned out to be 100%.
Turning to `CN1CC(O)N(c2ncns2)C1=O` (centres unmarked) [I.13-1, 4-Hydroxy-1-methyl-3-[1,2,4-thiadiazol-5-yl]-imidazolidin-2-one], the inhibition at 100 µM (stock) at photosystem II (PS II) was in the range of 50 to 70%. For the same molecule, the pest or weed control at 1280 g/ha was determined as 100% in the test with Abutilon theophrasti [1]; 90% with Stellaria media [2]; 80% in the test with Setaria viridis [3]; 100% with Viola tricolor [4]; 100% in the test with Stellaria media [6]; 80% in the test on Setaria viridis [8]. For the same molecule, the pest or weed control at 1280 g/ha in the test on Viola tricolor [10] stood at 100%. The “Amaranthus retroflexus, herbicidal activity rated visually” value in the test with Amaranthus retroflexus [12] turned out to be 100%. In the test with Veronica persica [13], the “Veronica persica, herbicidal activity rated visually” value amounted to 80%. Moreover, the “Alopecurus myosuroides, herbicidal activity rated visually” value with Alopecurus myosuroides [14] turned out to be 80%. In the test on Pharbitis purpurea, the “Pharbitis purpurea, herbicidal activity rated visually” value amounted to 90%. Further, in the test on Polygonum convolvulus [15], the “Polygonum convolvulus, herbicidal activity rated visually” value amounted to 100%. In addition, the “Amaranthus retroflexus, herbicidal effect scored visually” value with Amaranthus retroflexus [16] (320 g/ha) amounted to 100%. In addition, in the test on Veronica persica [17], the “Veronica persica, herbicidal effect scored visually” value is recorded as 90%. Further, the pest or weed control at 320 g/ha in the test with Matricaria inodora [7] (320 g/ha) was found to be 90%.
As for `COC(=O)OC1C(C)=C(C)C(=O)N1c1nc(C2CC2)ns1` (centres unmarked) [I.17-11, 3,4-Dimethyl-5-methoxycarbonyloxy-1-[3-(cyclopropyl)-1,2,4-thiadiazol-5-yl]-1,5-dihydro-2H-pyrrol-2-one], the pest or weed control at 1280 g/ha in the test with Abutilon theophrasti [1], in the test with Stellaria media [2], in the test with Setaria viridis [3], with Stellaria media [6], in the test with Matricaria inodora [7] and with Setaria viridis [8] was 100% each time. The “Amaranthus retroflexus, herbicidal activity rated visually” value in the test on Amaranthus retroflexus [12] was found to be 100%. In the test on Echinochloa crus-galli [18], the “Echinochloa crus-galli, herbicidal activity rated visually” value was 100%. For the same molecule, the “Matricaria inodora, herbicidal activity rated visually” value in the test with Matricaria inodora [19] turned out to be 100%. The “Lolium rigidum, herbicidal effect scored visually” value with Lolium rigidum amounted to 90%. Also, the “Poa annua, herbicidal effect scored visually” value with Poa annua was determined as 100%. In the test on Abutilon theophrasti [5], the “Abutilon theophrasti, herbicidal effect scored visually” value is 100%. In the test on Amaranthus retroflexus [16] (1280 g/ha), the “Amaranthus retroflexus, herbicidal effect scored visually” value was 100%. For the same molecule, the “Echinochloa crus-galli, herbicidal effect scored visually” value in the test with Echinochloa crus-galli [20] was determined as 100%.

For the origin of these results see patent publication US20200095241A1, “SUBSTITUTED 1,2,4-THIADIAZOLYLPYRROLONES AND 1,2,4-THIADIAZOLYLHYDANTOINS AND SALTS THEREOF AND USE THEREOF AS HERBICIDES” (Bayer CropScience Aktiengesellschaft, priority 2016, published 2020).
